Laboratory results taken from ChEMBL document CHEMBL5236648, “Improved synthesis of deoxyalpinoid B and quantification of antileishmanial activity of deoxyalpinoid B and sulforaphane” (Bioorg Med Chem, 2023).
The source made the active and inactive calls. The rule behind the calls is not given here.

Assays:
[1] = test system: Leishmania donovani; test: Antileishmanial activity against Leishmania donovani MHOM/IN/Dd8 promastigotes infected in PMA-differentiated human THP-1 cells assessed as increase in Hes family transcription factor 7 gene expression at 10 uM incubated for 18 hrs by RNA-seq analysis; format: functional, organism-based
[2] = test system: Leishmania infantum; test: Antileishmanial activity against Leishmania infantum MHOM/TN/80/IPT-1 promastigotes assessed as inhibition of promastigotes growth incubated for 48 hrs by MTT assay; format: functional, organism-based; settings: MHOM/TN/80/IPT-1, 48 h
[3] = test system: THP-1; test: Cytotoxicity against human THP-1 cells assessed as reduction in cell viability at 50 to 100 uM incubated for 48 hrs by MTT assay; format: toxicity, cell-based; settings: thp-1, 48 h, dose 50-100 µM
[4] = test system: Leishmania donovani; test: Antileishmanial activity against Leishmania donovani MHOM/IN/Dd8 promastigotes assessed as promastigotes viability at 10 uM incubated for 48 hrs by MTT assay relative to control; format: functional
[5] = test system: THP-1; test: Induction of oxidative stress in human THP-1 cells assessed as increase in intracellular ROS level at 10 uM incubated for 1 hr by H2DCFA fluorescent probe based flow cytometry analysis; format: functional, cell-based
[6] = test system: Leishmania donovani; test: Induction of oxidative stress in Leishmania donovani MHOM/IN/Dd8 promastigotes assessed as increase in intracellular ROS level at 10 to 50 uM incubated for 24 hrs by H2DCFA fluorescent probe based flow cytometry analysis; format: functional, organism-based; settings: dose 10-50 µM
[7] = test system: Leishmania donovani; test: Induction of oxidative stress in Leishmania donovani MHOM/IN/Dd8 promastigotes assessed as increase in mitochondrial superoxide level at 10 to 50 uM incubated for 24 hrs by Mito sox based flow cytometry analysis; format: functional, organism-based; settings: dose 10-50 µM
[8] = test system: Leishmania donovani; test: Antileishmanial activity against Leishmania donovani MHOM/IN/Dd8 promastigotes assessed as promastigotes viability at 50 uM incubated for 48 hrs by MTT assay relative to control; format: functional
[9] = Cytotoxicity against human THP-1 cells assessed as cell viability at 10 uM incubated for 48 hrs by MTT assay relative to control; format: toxicity, cell-based; settings: read-out: Activity
[10] = test system: Leishmania donovani; test: Antileishmanial activity against Leishmania donovani MHOM/IN/Dd8 promastigotes assessed as inhibition of promastigotes growth incubated for 48 hrs by MTT assay; format: functional, organism-based; settings: MHOM/IN/Dd8, 48 h
[11] = test system: Leishmania donovani; test: Antileishmanial activity against Leishmania donovani MHOM/IN/Dd8 promastigotes infected in PMA-differentiated human THP-1 cells assessed as increase in heat shock protein A6 expression at 10 uM incubated for 18 hrs by RNA-seq analysis; format: functional, organism-based
[12] = test system: Leishmania donovani; test: Antileishmanial activity against Leishmania donovani MHOM/IN/Dd8 promastigotes infected in PMA-differentiated human THP-1 cells assessed as activation of neuroactive ligand-receptor interactions at 10 uM incubated for 18 hrs by KEGG analysis; format: functional, organism-based
[13] = test system: Leishmania donovani; test: Antileishmanial activity against Leishmania donovani MHOM/IN/Dd8 metacyclic promastigotes infected in PMA-differentiated human THP-1 cells assessed as reduction in amastigotes formation at 10 uM incubated for 48 hrs by DAPI staining based inverted microscopic analysis; format: functional, organism-based
[14] = test system: Leishmania donovani; test: Antileishmanial activity against Leishmania donovani MHOM/IN/Dd8 promastigotes infected in PMA-differentiated human THP-1 cells assessed as increase in heat shock protein A7 expression at 10 uM incubated for 18 hrs by RNA-seq analysis; format: functional, organism-based
[15] = Cytotoxicity against human THP-1 cells assessed as cell viability at 5 uM incubated for 48 hrs by MTT assay relative to control; format: toxicity, cell-based; settings: read-out: Activity
[16] = Cytotoxicity against human THP-1 cells assessed as cell viability at 50 to 100 uM incubated for 48 hrs by MTT assay relative to control
[17] = test system: Leishmania donovani; test: Antileishmanial activity against Leishmania donovani MHOM/IN/Dd8 metacyclic promastigotes infected in PMA-differentiated human THP-1 cells assessed as reduction in number of amastigotes per 100 cell at 0.5 uM incubated for 48 hrs by DAPI staining based inverted microscopic analysis; format: functional, organism-based
[18] = test system: THP-1; test: Induction of oxidative stress in human THP-1 cells assessed as increase in intracellular ROS level at 0.5 uM incubated for 1 hr by H2DCFA fluorescent probe based flow cytometry analysis; format: functional, cell-based

Structure (SMILES): COc1cc(CC/C=C/C(=O)CCc2ccccc2)ccc1O
- Activity [1]: Active
- IC50 [2]: 22 µM
- Activity [3]: Toxic
- Activity [4]: 43%
- Activity [5]: Active
- Activity [6]: Active
- Activity [7]: Active
- Activity [8]: <10%
- viability at 48 h, 10 µM [9]: 76%
- IC50 [10]: 21.4 µM
- Activity [11]: Active
- Activity [12]: Active
- Activity [13]: Active
- Activity [14]: Active
- viability at 48 h, 5 µM [15]: 79%

Structure (SMILES): C[S+]([O-])CCCCN=C=S (stereo unspecified) [SULFORAPHANE]
- IC50 [2]: 16.5 µM
- Activity [4]: 57%
- Activity [5]: Active
- Activity [8]: <10%
- viability at 48 h, 100 µM [16]: < 45%
- viability at 48 h, 10 µM [9]: 76%
- IC50 [10]: 23.3 µM
- Activity [12]: Active
- viability at 48 h, 5 µM [15]: 84%

Structure (SMILES): C[C@@H]1[C@H](O)[C@@H](C)/C=C/C=C/C=C/C=C/C=C/C=C/C=C/[C@H](O[C@@H]2O[C@H](C)[C@@H](O)[C@H](N)[C@@H]2O)C[C@@H]2O[C@](O)(C[C@@H](O)C[C@@H](O)[C@H](O)CC[C@@H](O)C[C@@H](O)CC(=O)O[C@H]1C)C[C@H](O)[C@H]2C(=O)O
- Activity [17]: Active
- Activity [18]: inactive
